According to patent US12239645B2, “Targeted dosing for the treatment of complement mediated disorders” (Achillion Pharmaceuticals, Inc., priority 2018, dated 2025):
Where two headings read alike, the source gives them in different places.

Columns and labels:
[1] = MAD study, two additional single-dose cohorts: pharmacokinetics; type: in vivo, human; settings: for AUC(0-t) / Cmax / Tmax / AUC(0-inf): human, plasma, oral; for AUC(0-inf): read-out: AUC0-inf, Mean
Description: (§1) A multiple ascending dose (MAD) study of Compound 1 with two additional single-dose cohorts was also completed. […] Secondary objectives included evaluation of the pharmacokinetic (PK) profile and the relationship between Compound 1 PK and pharmacodynamic (PD) characteristics, that is, the inhibition of complement alternative pathway (AP) activity (PK/PD). In the MAD study, multiple-dose pharmacokinetics and pharmacodynamics of Compound 1 were evaluated in four dose groups administered Compound 1 (40, 80, 120 and 200 mg BID) in the fasted state for 14-days (Table 3). Eight subjects received active drug in each group; eight subjects received placebo in the first dose group (40 mg) and two subjects received placebo in each of the other three dose groups. Two additional cohorts were administered Compound 1 at single doses of 240 mg (fasted subjects) and 120 mg (fed subjects) (Table 3). The two single-dose cohorts each comprised six subjects receiving active drug and two subjects receiving placebo. Plasma and serum samples for PK and PD assessment were collected on selected days prior to dosing (at local troughs), and on days 1, 7, and 14 at 0.5-hour to 2-hour intervals for more detailed assessment.

[2] = Multiple ascending dose (MAD) study: multiple-dose pharmacokinetics; type: in vivo, human; settings: for concentration at 120 h: Day 6, 0 hr post-dose (120 h); for concentration at 132 h: Day 6, 12 hr post-dose (132 h); for concentration at 156 h: Day 7, 12 hr post-dose (156 h); for concentration at 168 h: Day 8, 0 hr post-dose (168 h); for concentration at 192 h: Day 9, 0 hr post-dose (192 h); for concentration at 288 h: Day 13, 0 hr post-dose (288 h); for concentration at 300 h: Day 13, 12 hr post-dose (300 h); for concentration at 312 h: Day 14, 0 hr post-dose (312 h); for Cmax: read-out: Cmax, Mean
Description: as §1

[3] = 120 mg single dose, fed moderate fat meal
[4] = 120 mg single dose, moderate-fat meal vs fasted (SAD)
[5] = human, plasma, oral, 40 mg BID, read-out: Pre-dose (trough) plasma concentration, Mean
[6] = human, plasma, oral, 40 mg, 40 mg BID × 14 Days, Day 1
[7] = human, plasma, oral, 40 mg, 40 mg BID × 14 Days, Day 7
[8] = human, plasma, oral, 40 mg, 40 mg BID × 14 Days, Day 14
[9] = human, plasma, oral, 80 mg BID, read-out: Pre-dose (trough) plasma concentration, Mean
[10] = human, plasma, oral, 80 mg, 80 mg BID × 14 Days, Day 1
[11] = human, plasma, oral, 80 mg, 80 mg BID × 14 Days, Day 7
[12] = human, plasma, oral, 80 mg, 80 mg BID × 14 Days, Day 14
[13] = human, plasma, oral, 80 mg, 80 mg BID, read-out: Pre-dose (trough) plasma concentration, Mean

Structure (SMILES): CC(=O)c1nn(CC(=O)N2[C@H](C(=O)Nc3nc(Br)ccc3C)C[C@@]3(C)C[C@@H]23)c2ccc(-c3cnc(C)nc3)cc12 [Compound 1, (1R,3S,5R)-2-(2-(3-acetyl-5-(2-methylpyrimidin-5-yl)-1H-indazol-1-yl)acetyl)-N-(6-bromo-3-methylpyridin-2-yl)-5-methyl-2-azabicyclo[3.1.0]hexane-3-carboxamide]
- t½term, Mean [1, 3]: 9.39 h
- mean AUC lower in the fed state vs fasted [1, 4]: 00.8%
- mean Cmax lower in the fed state vs fasted [1, 4]: 2.2%
- t½term, Mean ([1]; 240 mg single dose, fasted): 9.33 h
- AUC(0-t) ([1]; 120 mg, 120 mg single dose, fed moderate fat meal, read-out: AUC(0-12), Mean): 1.25 µg·h/mL
- AUC(0-t) ([1]; 120 mg, 120 mg single dose, fed moderate fat meal, read-out: AUC(0-72), Mean): 1.49 µg·h/mL
- AUC(0-t) ([1]; 240 mg, 240 mg single dose, fasted, read-out: AUC(0-12), Mean): 2.77 µg·h/mL
- AUC(0-t) ([1]; 240 mg, 240 mg single dose, fasted, read-out: AUC(0-72), Mean): 3.51 µg·h/mL
- Cmax [1, 3]: 0.309 µg/mL
- Tmax [1, 3]: 2.83 h
- AUC(0-inf) [1, 3]: 1.49 µg·h/mL
- Cmax ([1]; 240 mg single dose, fasted): 0.594 µg/mL
- Tmax ([1]; 240 mg single dose, fasted): 2.67 h
- AUC(0-inf) ([1]; 240 mg single dose, fasted): 3.52 µg·h/mL
- Mean pre-dose concentrations at steady-state, range ([2]; 40 mg BID): 15.6 to 23.5 ng/mL
- Mean pre-dose concentrations at steady-state, range ([2]; 80 mg BID): 45.9 to 83.7 ng/mL
- Mean pre-dose concentrations at steady-state, range ([2]; 120 mg BID): 80.6 to 153 ng/mL
- Mean pre-dose concentrations at steady-state, range ([2]; 200 mg BID): 247 to 392 ng/mL
- concentration at 120 h [2, 5]: 0.0278 µg/mL
- concentration at 132 h [2, 5]: 0.0179 µg/mL
- concentration at 144 h ([2]; human, plasma, oral, 40 mg BID, Day 7, 0 hr post-dose (144 h), read-out: Pre-dose (trough) plasma concentration, Mean): 0.0243 µg/mL
- concentration at 156 h [2, 5]: 0.0157 µg/mL
- concentration at 168 h [2, 5]: 0.0278 µg/mL
- concentration at 192 h [2, 5]: 0.0269 µg/mL
- concentration at 288 h [2, 5]: 0.0235 µg/mL
- concentration at 300 h [2, 5]: 0.0154 µg/mL
- concentration at 312 h [2, 5]: 0.0252 µg/mL
- concentration at 324 h ([2]; human, plasma, oral, 40 mg BID, Day 14, 12 hr post-dose (324 h), read-out: Pre-dose (trough) plasma concentration, Mean): 0.0162 µg/mL
- concentration at 12 h ([2]; human, plasma, oral, 40 mg BID, all 12 hr (evening) troughs, read-out: Mean C(12), steady-state trough): 0.0156 µg/mL
- Tmax [2, 6]: 1.56 h
- AUC(0-t) ([2]; human, plasma, oral, 40 mg, 40 mg BID × 14 Days, Day 1, read-out: AUC(0-12), Mean): 0.392 µg·h/mL
- Cmax [2, 6]: 0.107 µg/mL
- Tmax [2, 7]: 1.8 h
- AUC(0-t) ([2]; human, plasma, oral, 40 mg, 40 mg BID × 14 Days, Day 7, read-out: AUC(0-12), Mean): 0.741 µg·h/mL
- AUC(0-t) ([2]; human, plasma, oral, 40 mg, 40 mg BID × 14 Days, Day 7, read-out: AUC(0-24), Mean): 1.48 µg·h/mL
- Cmax [2, 7]: 0.169 µg/mL
- Tmax [2, 8]: 1.58 h
- AUC(0-t) ([2]; human, plasma, oral, 40 mg, 40 mg BID × 14 Days, Day 14, read-out: AUC(0-12), Mean): 0.732 µg·h/mL
- AUC(0-t) ([2]; human, plasma, oral, 40 mg, 40 mg BID × 14 Days, Day 14, read-out: AUC(0-24), Mean): 1.46 µg·h/mL
- Cmax [2, 8]: 0.156 µg/mL
- concentration at 156 h [2, 9]: 0.0437 µg/mL
- concentration at 168 h [2, 9]: 0.109 µg/mL
- concentration at 192 h [2, 9]: 0.102 µg/mL
- concentration at 288 h [2, 9]: 0.0633 µg/mL
- concentration at 300 h [2, 9]: 0.0452 µg/mL
- concentration at 312 h [2, 9]: 0.085 µg/mL
- Tmax [2, 10]: 1.79 h
- AUC(0-t) ([2]; human, plasma, oral, 80 mg, 80 mg BID × 14 Days, Day 1, read-out: AUC(0-12), Mean): 0.856 µg·h/mL
- Cmax [2, 10]: 0.207 µg/mL
- Tmax [2, 11]: 2 h
- AUC(0-t) ([2]; human, plasma, oral, 80 mg, 80 mg BID × 14 Days, Day 7, read-out: AUC(0-12), Mean): 1.99 µg·h/mL
- AUC(0-t) ([2]; human, plasma, oral, 80 mg, 80 mg BID × 14 Days, Day 7, read-out: AUC(0-24), Mean): 3.99 µg·h/mL
- Cmax [2, 11]: 0.472 µg/mL
- Tmax [2, 12]: 2.14 h
- AUC(0-t) ([2]; human, plasma, oral, 80 mg, 80 mg BID × 14 Days, Day 14, read-out: AUC(0-12), Mean): 1.98 µg·h/mL
- AUC(0-t) ([2]; human, plasma, oral, 80 mg, 80 mg BID × 14 Days, Day 14, read-out: AUC(0-24), Mean): 3.97 µg·h/mL
- Cmax [2, 12]: 0.453 µg/mL
- concentration at 120 h [2, 13]: 0.0738 µg/mL
- concentration at 132 h [2, 13]: 0.0521 µg/mL
